Columns and labels:
cheatgrass = test: Test B preemergence/postemergence greenhouse plant response rating 0 to 10; assay type: in vivo, Bromus secalinus; details: 0 to 10 scale
Method in brief: (§1)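 Planted seeds are treated preemergence with compound dissolved in a non-phytotoxic solvent, while postemergence applications go onto plants of two to eighteen cm. Plants stay in the greenhouse twelve to sixteen days and are then rated visually relative to controls.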

sugar beet = test: Test C preemergence/postemergence greenhouse plant response rating 0 to 100; assay type: in vivo, Beta vulgaris; details: POSTEMERGENCE; for Plant response rating, Sugar beet: 0 to 100 scale
Method in brief: (§2)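 Compounds in non-phytotoxic solvent applied preemergence to sandy loam one day after planting, postemergence at the 1–4 leaf stage, or to ~2.5 cm floodwater over silt loam.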

bedstraw [1] = test: as above; assay type: in vivo, Galium aparine; details: POSTEMERGENCE; for Plant response rating, Bedstraw: 0 to 100 scale
Method in brief: as §2

rape = test: Test B preemergence/postemergence greenhouse plant response rating 0 to 10; assay type: in vivo, Brassica napus; details: 0 to 10 scale
Method in brief: as §1

barley [2] = test: as above; assay type: in vivo, Hordeum vulgare; details: 0 to 10 scale
Method in brief: as §1

barley [3] = test: Test C preemergence/postemergence greenhouse plant response rating 0 to 100; assay type: in vivo, Hordeum vulgare; details: POSTEMERGENCE; for Plant response rating Barley Igri: 0 to 100 scale
Method in brief: as §2

wild buckwheat = test: as above; assay type: in vivo, Polygonum convolvulus; details: POSTEMERGENCE; for Plant response rating, Wild buckwheat: 0 to 100 scale
Method in brief: as §2

sorghum [4] = test: Test B preemergence/postemergence greenhouse plant response rating 0 to 10; assay type: in vivo, Sorghum bicolor; details: 0 to 10 scale
Method in brief: as §1

bedstraw [5] = test: as above; assay type: in vivo, Galium aparine; details: 0 to 10 scale
Method in brief: as §1

rice = test: as above; assay type: in vivo, Oryza sativa; details: 0 to 10 scale
Method in brief: as §1

sorghum [6] = test: Test C preemergence/postemergence greenhouse plant response rating 0 to 100; assay type: in vivo, Sorghum bicolor; details: POSTEMERGENCE; for Plant response rating, Sorghum: 0 to 100 scale
Method in brief: as §2

duck salad = test: Test C flood test plant response rating 0 to 100; assay type: in vivo, Heteranthera limosa; details: for Plant response rating Duck salad: flood test species listed under POSTEMERGENCE, 0 to 100 scale
Method in brief: as §2

ryegrass = test: Test C preemergence/postemergence greenhouse plant response rating 0 to 100; assay type: in vivo, Lolium multiflorum; details: POSTEMERGENCE; for Plant response rating Ryegrass: 0 to 100 scale
Method in brief: as §2

cotton = test: Test B preemergence/postemergence greenhouse plant response rating 0 to 10; assay type: in vivo, Gossypium hirsutum; details: 0 to 10 scale
Method in brief: as §1

blackgrass [7] = test: Test C preemergence/postemergence greenhouse plant response rating 0 to 100; assay type: in vivo, Alopecurus myosuroides; details: POSTEMERGENCE; for Plant response rating, Blackgrass: 0 to 100 scale
Method in brief: as §2

pigweed = test: as above; assay type: in vivo, Amaranthusretroflexus; details: POSTEMERGENCE; for Plant response rating Pigweed: 0 to 100 scale
Method in brief: as §2

wheat = test: Test B preemergence/postemergence greenhouse plant response rating 0 to 10; assay type: in vivo, Triticum aestivum; details: 0 to 10 scale
Method in brief: as §1

blackgrass [8] = test: as above; assay type: in vivo, Alopecurus myosuroides; details: 0 to 10 scale
Method in brief: as §1

CC(C)OC(=O)c1cc(-c2nn3c(c2Cl)CCCC3)c(F)cc1Cl [Compound 44]
Plant response rating, Cheatgrass (cheatgrass; POSTEMERGENCE, Rate 50 g/ha): 7
Plant response rating, Cheatgrass (cheatgrass; POSTEMERGENCE, Rate 200 g/ha): 10
Plant response rating, Cheatgrass (cheatgrass; PREEMERGENCE, Rate 50 g/ha): 2
Plant response rating, Cheatgrass (cheatgrass; Rate 200 g/ha, PREEMERGENCE): 6
Plant response rating, Sugar beet (sugar beet; 62 g/ha): 100
Plant response rating, Sugar beet (sugar beet; 250 g/ha): 100
Plant response rating (0 to 100), Sugar beet (sugar beet; Rate 4 g/ha): 80
Plant response rating (0 to 100), Sugar beet (sugar beet; Rate 16 g/ha): 100
Plant response rating, Bedstraw (bedstraw [1]; 62 g/ha): 80
Plant response rating, Bedstraw (bedstraw [1]; 250 g/ha): 100
Plant response rating (0 to 100), Bedstraw (bedstraw [1]; Rate 4 g/ha): 60
Plant response rating (0 to 100), Bedstraw (bedstraw [1]; Rate 16 g/ha): 80
Plant response rating, Rape (rape; POSTEMERGENCE, Rate 50 g/ha): 9
Plant response rating, Rape (rape; PREEMERGENCE, Rate 50 g/ha): 2
Plant response rating, Rape (rape; Rate 200 g/ha, POSTEMERGENCE): 10
Plant response rating, Rape (rape; Rate 200 g/ha, PREEMERGENCE): 8
Plant response rating, Barley (barley [2]; POSTEMERGENCE, Rate 50 g/ha): 4
Plant response rating, Barley (barley [2]; POSTEMERGENCE, Rate 200 g/ha): 6
Plant response rating, Barley (barley [2]; PREEMERGENCE, Rate 50 g/ha): 1
Plant response rating, Barley (barley [2]; Rate 200 g/ha, PREEMERGENCE): 2
Plant response rating Barley Igri (barley [3]; 62 g/ha): 40
Plant response rating Barley Igri (barley [3]; 250 g/ha): 60
Plant response rating (0 to 100), Barley Igri (barley [3]; Rate 4 g/ha): 10
Plant response rating (0 to 100), Barley Igri (barley [3]; Rate 16 g/ha): 30
Plant response rating, Wild buckwheat (wild buckwheat; 62 g/ha): 100
Plant response rating, Wild buckwheat (wild buckwheat; 250 g/ha): 100
Plant response rating (0 to 100), Wild buckwheat (wild buckwheat; Rate 4 g/ha): 70
Plant response rating (0 to 100), Wild buckwheat (wild buckwheat; Rate 16 g/ha): 90
Plant response rating, Sorghum (sorghum [4]; POSTEMERGENCE, Rate 50 g/ha): 4
Plant response rating, Sorghum (sorghum [4]; PREEMERGENCE, Rate 50 g/ha): 1
Plant response rating, Sorghum (sorghum [4]; Rate 200 g/ha, POSTEMERGENCE): 5
Plant response rating, Sorghum (sorghum [4]; Rate 200 g/ha, PREEMERGENCE): 2
Plant response rating, Bedstraw (bedstraw [5]; POSTEMERGENCE, Rate 50 g/ha): 9
Plant response rating, Bedstraw (bedstraw [5]; POSTEMERGENCE, Rate 200 g/ha): 9
Plant response rating, Bedstraw (bedstraw [5]; PREEMERGENCE, Rate 50 g/ha): 8
Plant response rating, Bedstraw (bedstraw [5]; Rate 200 g/ha, PREEMERGENCE): 10
Plant response rating, Rice (rice; POSTEMERGENCE, Rate 50 g/ha): 5
Plant response rating, Rice (rice; PREEMERGENCE, Rate 50 g/ha): 1
Plant response rating, Rice (rice; Rate 200 g/ha, POSTEMERGENCE): 9
Plant response rating, Rice (rice; Rate 200 g/ha, PREEMERGENCE): 2
Plant response rating, Sorghum (sorghum [6]; 62 g/ha): 60
Plant response rating, Sorghum (sorghum [6]; 250 g/ha): 100
Plant response rating (0 to 100), Sorghum (sorghum [6]; Rate 4 g/ha): 30
Plant response rating (0 to 100), Sorghum (sorghum [6]; Rate 16 g/ha): 40
Plant response rating (0 to 100), Duck salad (duck salad; POSTEMERGENCE section, flood test, Rate 4 g/ha): 0
Plant response rating (0 to 100), Duck salad (duck salad; Rate 16 g/ha, under POSTEMERGENCE head (flood test species)): 30
Plant response rating Duck salad (duck salad; 62 g/ha): 70
Plant response rating Duck salad (duck salad; 250 g/ha): 90
Plant response rating Ryegrass (ryegrass; 62 g/ha): 50
Plant response rating Ryegrass (ryegrass; 250 g/ha): 90
Plant response rating (0 to 100), Ryegrass (ryegrass; Rate 4 g/ha): 20
Plant response rating (0 to 100), Ryegrass (ryegrass; Rate 16 g/ha): 30
Plant response rating, Cotton (cotton; POSTEMERGENCE, Rate 50 g/ha): 10
Plant response rating, Cotton (cotton; POSTEMERGENCE, Rate 200 g/ha): 10
Plant response rating, Cotton (cotton; PREEMERGENCE, Rate 50 g/ha): 1
Plant response rating, Cotton (cotton; Rate 200 g/ha, PREEMERGENCE): 8
Plant response rating, Blackgrass (blackgrass [7]; 62 g/ha): 60
Plant response rating, Blackgrass (blackgrass [7]; 250 g/ha): 80
Plant response rating (0 to 100), Blackgrass (blackgrass [7]; Rate 4 g/ha): 30
Plant response rating (0 to 100), Blackgrass (blackgrass [7]; Rate 16 g/ha): 40
Plant response rating Pigweed (pigweed; 62 g/ha): 100
Plant response rating Pigweed (pigweed; 250 g/ha): 100
Plant response rating (0 to 100), Pigweed (pigweed; Rate 4 g/ha): 90
Plant response rating (0 to 100), Pigweed (pigweed; Rate 16 g/ha): 100
Plant response rating, Wheat (wheat; POSTEMERGENCE, Rate 50 g/ha): 6
Plant response rating, Wheat (wheat; PREEMERGENCE, Rate 50 g/ha): 3
Plant response rating, Wheat (wheat; Rate 200 g/ha, POSTEMERGENCE): 6
Plant response rating, Wheat (wheat; Rate 200 g/ha, PREEMERGENCE): 3
Plant response rating, Blackgrass (blackgrass [8]; POSTEMERGENCE, Rate 50 g/ha): 8
Plant response rating, Blackgrass (blackgrass [8]; POSTEMERGENCE, Rate 200 g/ha): 9
Plant response rating, Blackgrass (blackgrass [8]; PREEMERGENCE, Rate 50 g/ha): 4
Plant response rating, Blackgrass (blackgrass [8]; Rate 200 g/ha, PREEMERGENCE): 6
